Values of other authors in US20130084272A1, “COMPOSITIONS, KITS AND METHODS FOR NUTRITIONAL SUPPLEMENTATION WITH TWELVE CARBON CHAIN FATTY ACIDS AND TWELVE CARBON CHAIN ACYLGLYCEROLS” (priority 2011, published 2013).

Tested on: exotoxins from Gram-positive bacteria
Details: Peterson et al. 2006; cited from earlier work

In the case of `CCCCCCCCCCCC(=O)OCC(O)CO` (stereo not shown) [monolaurin, glycerol monolaurate], the “Effect on exotoxins from Gram-positive bacteria” value is given as “inhibit the effects of exotoxins”.
